The source of these data is patent publication US11098294B2, “Anti-inflammatory peptides and composition comprising same” (GemVax & KAEL Co., Ltd., priority 2012, dated 2021).

Common to all, as to assay type: cell-based
One assay deals with HMGB1. Description: Western blot, HMGB1 expression inhibition, LPS-stimulated cells. The protocol: (§1) Raw 264.7 macrophage cell (KCBL, 40071) from Korea Cell Bank was maintained in Dulbecco's modified Eagle's medium (DMEM; PAA, Austria) containing 10% fetal bovine serum (FBS; Gibco Laboratories), 100 unit/mL of streptomycin, and penicillin (Gibco Laboratories) at 37° C. with 5% CO2. Raw264.7 cells were seeded into a 96-well plate at a density of 1×10^6 cells/mL and incubated overnight.
(§2) On the following day, the medium was replaced with fresh medium and 5 μg/mL of peptide (obtained as described in Experiment example 1) was added to the cells. After 30 min incubation of cells with the peptide 50 μL of LPS (to a final concentration of 1 μg/mL) was added, and cells were incubated for additional 24 hr. The experimental sample with the induction of inflammatory response was treated with 1 μg/mL mL lipopolysaccharide (LPS; Sigma, USA) and control sample was treated with phosphate buffered saline (PBS; pH 7.2). The supernatant samples from each condition was collected in eppendorf tubes and subjected to further analysis.
(§3) Protein expression level was determined by Western blot analysis. […] The membrane was incubated with ECL (enhanced chemiluminesence) solution (Amersham Life Science Corp., Arlington Heights, Ill., USA), exposed to X-ray, and the level of protein expression was analyzed according to the exposure level shown on the X-ray film.

The subject of the next assay is nitric oxide (NO). As to the kind of experiment: NO level analysis (Griess reagent) in LPS-stimulated Raw 264.7 cells. The following applies: Raw 264.7 cell, LPS 1 μg/mL, PEP 1 0.5 μg/mL. The protocol: as §1
[…] After 30 min incubation of cells with the peptide 50 μL of LPS (to a final concentration of 1 μg/mL) was added, and cells were incubated for additional 24 hr. The experimental sample with the induction of inflammatory response was treated with 1 μg/mL mL lipopolysaccharide (LPS; Sigma, USA) and control sample was treated with phosphate buffered saline (PBS; pH 7.2). The supernatant samples from each condition was collected in eppendorf tubes and subjected to further analysis.
The level of nitric oxide (NO) was measured in Raw 264.7 cell (1×10^6 cell/ml) using Griess reagent system (Promega, USA). Culture medium of 50 μl was added to a 96-well plate and Griess reagent I […] are added in the same amount. After 10 min incubation of cells with the reagents, the optical density at 540 nm was measured within 30 min using a microplate reader (Molecular Devices, USA). The concentration of NO was calculated by using a standard curve (0˜100 μM) of sodium nitrite.
On the technique in general: Nitrite, measured by Griess reagent, commonly stands in for NO production.

Another assay relates to TNF-α. As to the kind of experiment: Western blot, TNF-α expression inhibition, LPS-stimulated cells. The protocol:
as §1, §2, §3

The next assay deals with COX-2. As to the kind of experiment: Western blot, COX-2 expression inhibition, LPS-stimulated cells. The protocol:
as §1, §2, §3
For orientation: A western blot detects proteins with antibodies after separation by electrophoresis.

Another assay has as its system IL-6. As to the kind of experiment: IL-6 secretion measurement (ELISA) in LPS-challenged RAW 264.7 cells. The note with it: RAW 264.7 cell, LPS 1 μg/mL, PEP 1 5 μg/ml, 24 hr. The protocol:
as §1, §2
To investigate the effect of PEP1 on inhibiting pro-inflammatory cytokine production RAW 264.7 cell were pre-treated with PEP 1 at a concentration of 5 μg/mL challenged with LPS at a concentration of 1 μg/mL, and cells were further incubated for 24 hr. The supernatant samples containing cell culture medium was collected and analyzed for the cytokine levels using ELISA kits (eBioscience, San Diego).
96 wells plates were coated with 100 μl of capture antibodies (diluted in coating buffer to the concentration recommended by manufacturer's protocol) overnight at 4° C. Then, after washing the plates 5 times, 200 μL of assay diluents was added to each well and incubated for 1 hr at room temperature for blocking. […]
Following incubation with the secondary antibody, the plate was washed five times and incubated with 100 μl of avidin-HRP (BD Bioscience) for 30 min at room temperature. […] The reaction was stopped by adding 50 μl of 2N H2SO4 in each well The optical density at 450 nm was measured using a microplate reader. […]
On the technique in general: An ELISA detects its analyte on a solid surface through an enzyme-linked reagent.

The mark [1] stands for this setting: cells treated with both LPS and Pep1.

Turning to EARPALLTSRLRFIPK [PEP 1], in the assay with HMGB1 (LPS 1 μg/ml, PEP 1 5 μg/ml), the “Cytokine Expression Level (band intensity) % of control HMGB1” value was found to be 30%. For the same sequence, in the assay on HMGB1 (setting [1]), the “decrease of pro-inflammatory cytokine level (HMGB1)” value is on record as “more than 70%”. Besides, in the assay with nitric oxide (NO), the “Decreased NO Expression Level (%)” value is 65% and the “NO Expression Level of control (%)” value worked out at 35%. In addition, in the assay on nitric oxide (NO) (listed as Pep1), the “NO Expression Level of control (%)” value stood at 65%. In addition, in the assay with TNF-α (LPS 1 μg/ml, PEP 1 5 μg/ml), the “Cytokine Expression Level (band intensity) % of control TNF-α” value is 25%. The “decrease of pro-inflammatory cytokine level (TNF-α)” value in the assay on TNF-α (setting [1]) was “more than 70%”. Further, the “Cytokine Expression Level (band intensity) % of control COX-2” value in the assay on COX-2 (LPS 1 μg/ml, PEP 1 5 μg/ml) is reported as 22%. The “decrease of pro-inflammatory cytokine level (COX)” value in the assay on COX-2 (setting [1]) is listed as “more than 70%”. Moreover, in the assay on IL-6, the “cytokine IL-6 production % of control” value is 28% and the “cytokine IL-6 production inhibition %” value was found to be 72%. For the same sequence, the “cytokine IL-6 production inhibition %” value in the assay with IL-6 (listed as PEP-1) is reported as “more than 70%”.
